One experiment deals with hexokinase. In words: Calorimetric deconvolution of a cofactor mixture with hexokinase and glucose. In kind it is biochemical. The settings on record: 5 μL of 20 μM hexokinase into 100 μM glucose and cofactors at 1 mM. As to the method:
Hexokinase and glucose were present in each test. Various mixtures of cofactors were added to each test. Only when ATP was present in the mixture was a significant amount of heat generated. 5 μL injections of a 20 μM solution of hexokinase were titrated into a solution of 100 μM glucose and one or more “cofactors”, all at 1 mM concentration. In the initial experiment with the entire library of 15 cofactors present, enzymatic turnover was observed (as in FIG. 12a(ii)). We were then able to successfully separate out the cofactors in subsequent experiments to determine which one was actually necessary to allow the hexokinase to turn over the glucose. […] Only tiny heats of dilution are observed when ATP is absent;

For a further experiment, the target named is E. coli protein YJEQ (Escherichia coli, UniProt P39286). In words: Calorimetric titration of GTP-gamma-S into E. coli protein YJEQ. It is filed as binding. The settings on record: 5 μL injections of 11 mM GTP-gamma-S into 2 mL of 385 μM protein. On the procedure: 5 μL injections of an 11 mM GTP-gamma-S solution were titrated into 2 mL of a solution containing 385 μM of an E. coli protein for which no function was previously known.

As for `Nc1ncnc2c1ncn2[C@@H]1O[C@H](COP(=O)(O)OP(=O)(O)OP(=O)(O)O)[C@@H](O)[C@H]1O` [ATP], the “heat on injection of hexokinase (cofactor needed for turnover of glucose)” value in the experiment with hexokinase is on record as “large negative heat”.

Consider `Nc1nc2c(ncn2[C@@H]2O[C@H](COP(=O)(O)OP(=O)(O)OP(O)(O)=S)[C@@H](O)[C@H]2O)c(=O)[nH]1` [GTP-gamma-S], for which the affinity at E. coli protein YJEQ, expressed as Kd, was 115 µM.

A word on the Kd: it is the constant that tells how readily two partners part at equilibrium. Low values mean a tighter complex, high ones a looser complex.

Values taken from US20030044800A1, “Drug discovery employing calorimetric target triage” (priority 2000, published 2003).
